Read-outs that look alike come from different tables or passages of the source.
Assays:
[1] = system: Stichococcus bacillaris SAG 379-1a / CCAP 379/1a; experiment: Algal efficacy test of dry paint films (modified ASTM 5589, 6-well plates); format: cell-based; settings: for inhibition at 5000 ppm: Stichococcus bacillaris, 504 h; for Total conc: total biocide concentration in paint at which the % inhibition is reported, pass level ≥75% inhibition, single actives: maximum concentration tested, no pass
Experimental: (§1) These paints were then diluted with an antimicrobial free acrylic/silicone based paint and mixed to prepare targeted concentrations of antimicrobial compounds for the testing. The total biocides concentrations tested were 125, 250, 500, 1000, 2000 and 5000 ppm. After biocides addition or dilution, the paints were mixed 90 seconds with the horse power shaker (AXEL 75M3372/Agitateur 50-10MI) until uniformity was achieved. Paints containing different antimicrobial compounds at the same levels were mixed together in order to obtain the desired ratio of antimicrobial compounds. After one day, the paints were applied to Schleicher & Schuell filter paper at 280 μm wet film thickness and dried for 3 days at room temperature avoiding direct exposure to sunlight. Square discs (1.6 cm×1.6 cm) were cut out from each panel and were used as the substrate for algal efficacy tests. This sample size allowed for an agar border when the sample disc was placed into the well of the test plate.
(§2) Algal efficacy was tested according to modified ASTM 5589 which is a standard accelerated test method for determining resistance of various coatings (including paints) to algal defacement. To accommodate for high-throughput screening, this method was scaled down from petri dishes to 6-well plates. Bold Modified Basal Freshwater Nutrient Solution was used as growth medium. A single coated filter paper coupon was placed with a pair of sterile forceps at the center of the agar plug (on top) with the painted surface facing upwards. Algal inoculums were prepared by mixing equal concentrations (1×10^6 cfu/ml) and equal volumes of exponentially growing algae cultures.
(§3) Each well that contains a tested coupon was inoculated with 1750 μl of algal suspensions (1×10^6 cfu/ml) making sure that the whole surface (paint film as well as the agar surrounding it) was evenly covered. The plates were incubated at room temp (21° C.-25° C.) with cyclic exposure to light and dark phases, for a period of three weeks.
(§4) At the end of the three week incubation period, the samples were scored for percent inhibition regarding visible algal growth compared to the blank sample (0% inhibition).
(§5) The SI is calculated based on F. C. Kull et.
(§6) SI value of <1 in the formula indicates a synergism of the blended biocides exists.
(§7) The minimal targeted inhibition was set at 75%, meaning a coupon with at least 75% algal growth inhibition was considered as a pass.

[2] = system: Chlorella sp. ATCC 7516; experiment: as above; format: cell-based; settings: for inhibition at 5000 ppm: 504 h; for Total conc: total biocide concentration in paint at which the % inhibition is reported, pass level ≥75% inhibition, single actives: maximum concentration tested, no pass
Experimental: as §1, §2, §3, §4, §5, §6, §7

O=c1[nH]c2c(c(=O)n1C1CCCCC1)CCC2 [Lenacil, 3-cyclohexyl-1,5,6,7-tetrahydrocyclopentapyrimidine-2,4(3H)-dione]
inhibition at 5000 ppm [1]: 70%
Total conc ([1]; Stichococcus, 3 weeks): 5000 ppm
inhibition at 5000 ppm [2]: 30%
Total conc ([2]; 3 weeks): 5000 ppm

CCNc1nc(NC(C)(C)C)nc(SC)n1 [Terbutryn, N^2-tert-butyl-N^4-ethyl-6-methylthio-1,3,5-triazine-2,4-diamine]
inhibition at 5000 ppm ([1]; Stichococcus, total conc 5000 ppm in paint, visible algal growth vs blank, 3 weeks, read-out: % inhibition): 35%
Total conc ([1]; Stichococcus, 3 weeks): 5000 ppm
inhibition at 5000 ppm ([2]; total conc 5000 ppm in paint, visible algal growth vs blank, 3 weeks, read-out: % inhibition): 65%
Total conc ([2]; 3 weeks): 5000 ppm

Reference: US9526248B2 (Rohm and Haas Company, priority 2012, dated 2016)
